# Test results as given in ChEMBL document CHEMBL3272338, “Bis-basic-substituted polycyclic aromatic compounds. A new class of antiviral agents. 8. Bis-basic derivatives of carbazole, dibenzofuran, and dibenzothiophene” (1977).
# Assays:
# Assay type in all cases: functional
# [1] = system: Encephalomyocarditis virus; test: Antiviral activity against Encephalomyocarditis virus infected in CF-1 mouse assessed as host survival time ratio at 250 mg/kg, po administered via gavage as single dose at 22 to 28 hrs before virus inoculation
# [2] = system: Encephalomyocarditis virus; test: Antiviral activity against Encephalomyocarditis virus infected in CF-1 mouse assessed as host survival time ratio at 250 mg/kg, sc administered 28, 22, 2 hrs before and 2 hrs after virus inoculation; conditions: route subcutaneous
# [3] = system: Encephalomyocarditis virus; test: Antiviral activity against Encephalomyocarditis virus infected in CF-1 mouse assessed as host survival time ratio at 50 mg/kg, sc administered 28, 22, 2 hrs before and 2 hrs after virus inoculation; conditions: route subcutaneous
# [4] = system: Encephalomyocarditis virus; test: Antiviral activity against Encephalomyocarditis virus infected in CF-1 mouse assessed as host survival time ratio at 10 mg/kg, sc administered 28, 22, 2 hrs before and 2 hrs after virus inoculation; conditions: route subcutaneous
# [5] = system: Encephalomyocarditis virus; test: Antiviral activity against Encephalomyocarditis virus infected in CF-1 mouse assessed as host survival time ratio at 50 mg/kg, po administered via gavage at 28, 22, 2 hrs before and 2 hrs after virus inoculation
SMILES,Ratio [1],Ratio [2],Ratio [3],Ratio [4],Ratio [5]
CN(C)CCOc1ccc2sc3ccc(OCCN(C)C)cc3c2c1.Cl,1.06,0.91,1.13,1.09,0.98
Cl.c1cc2oc3ccc(OCCN4CCCCC4)cc3c2cc1OCCN1CCCCC1,1.04,1.02,1.25,0.94,0.85
CCCCN(CCCC)CCCOc1ccc2sc3ccc(OCCCN(CCCC)CCCC)cc3c2c1.Cl,0.88,0.96,1.14,0.88,0.9
CCN(CC)CCOC(=O)c1ccc2c(c1)sc1ccc(C(=O)OCCN(CC)CC)cc12.Cl,,1.2,1.04,1.14,
O=C(CCCN1CCCCC1)c1ccc2[nH]c3ccc(C(=O)CCCN4CCCCC4)cc3c2c1,0.88,1,0.96,1.22,0.86
CC1CCN(CCCC(=O)c2ccc3sc4ccc(C(=O)CCCN5CCC(C)CC5)cc4c3c2)CC1,1.1,1.69,1.84,1.22,1.06
CCN(CC)CCOc1ccc2oc3ccc(OCCN(CC)CC)cc3c2c1.Cl,1.02,0.91,1.31,1.21,1.17
CC(C)N(CCOc1ccc2sc3ccc(OCCN(C(C)C)C(C)C)cc3c2c1)C(C)C.Cl,1,1.2,1.3,1.24,1.18
CN(C)CCCCC(C)(C)COC(=O)c1ccc2c(c1)sc1ccc(C(=O)OCC(C)(C)CCCN(C)C)cc12.Cl,,1.11,1.42,1.07,
O=C(CCCN1CCCCC1)c1ccc2oc3ccc(C(=O)CCCN4CCCCC4)cc3c2c1,1.19,1.81,1.49,,1.06
CC(C)N(CCOc1ccc2oc3ccc(OCCN(C(C)C)C(C)C)cc3c2c1)C(C)C,0.88,1.14,1.24,0.88,0.96
CCN(CC)CCOc1ccc2c(c1)c1cc(OCCN(CC)CC)ccc1n2CC.Cl,0.92,0.85,1.13,1.05,0.87
CCN(CC)CCOc1ccc2sc3ccc(OCCN(CC)CC)cc3c2c1.O=C(O)/C=C/C(=O)O,0.86,1.32,1.12,0.96,0.88
Cl.c1cc2oc3ccc(OCCCN4CCCCC4)cc3c2cc1OCCCN1CCCCC1,1.02,0.63,1.44,1.46,1.02
Cl.O=C(OCCCN1CCCCC1)c1ccc2oc3ccc(C(=O)OCCCN4CCCCC4)cc3c2c1,1.02,0.91,1.22,1.11,0.96
CC(COc1ccc2oc3ccc(OCC(C)CN(C)C)cc3c2c1)CN(C)C.Cl (stereo unspecified),0.92,0.57,1.14,1.2,0.9
CC(C)CCN(CCCOC(=O)c1ccc2c(c1)sc1ccc(C(=O)OCCCN(CCC(C)C)CCC(C)C)cc12)CCC(C)C.Cl,,1.11,0.98,0.96,
CCN(CC)CCCOC(=O)c1ccc2c(c1)c1cc(C(=O)OCCCN(CC)CC)ccc1n2CC.Cl,0.75,1.87,1.74,1.33,
CCn1c2ccc(OCCCN(C)C)cc2c2cc(OCCCN(C)C)ccc21.Cl,0.88,0.52,1.1,0.92,0.9
CCN(CC)CC(=O)c1ccc2oc3ccc(C(=O)CN(CC)CC)cc3c2c1.Cl,1.65,2.17,1.35,0.96,0.96
CCN(CC)CCCOC(=O)c1ccc2oc3ccc(C(=O)OCCCN(CC)CC)cc3c2c1.Cl,,1.22,1.19,,
CCn1c2ccc(OCCN3CCOCC3)cc2c2cc(OCCN3CCOCC3)ccc21,0.88,1.02,1.08,0.92,0.86
CCCCN(CCCC)CCCNC(=O)c1ccc2oc3ccc(C(=O)NCCCN(CCCC)CCCC)cc3c2c1.O=C(O)CC(O)(CC(=O)O)C(=O)O,,0.85,1.24,1.17,

SMILES,Ratio [1],Ratio [2],Ratio [3],Ratio [4],Ratio [5]
Cl.c1cc2sc3ccc(OCCN4CCCCC4)cc3c2cc1OCCN1CCCCC1,1.02,1.3,1.57,1.09,0.98
O=C(CCCN1CCCCC1)c1ccc2sc3ccc(C(=O)CCCN4CCCCC4)cc3c2c1,1.22,0.61,1.9,1.1,1.16
CCCCN(CCCC)CCCOC(=O)c1ccc2sc3ccc(C(=O)OCCCN(CCCC)CCCC)cc3c2c1.Cl,0.93,2.43,1.48,1.29,0.93
CCCN(CCC)CCCOC(=O)c1ccc2oc3ccc(C(=O)OCCCN(CCC)CCC)cc3c2c1.Cl,,1.88,1.21,0.96,
CCN(CC)CCCOC(=O)c1ccc2sc3ccc(C(=O)OCCCN(CC)CC)cc3c2c1.Cl,,1.3,1.77,,
Cl.O=C(CN1CCCCC1)c1ccc2oc3ccc(C(=O)CN4CCCCC4)cc3c2c1,1.41,2.41,1.12,1.11,0.87
CCn1c2ccc(CCCCN3CCCCC3)cc2c2cc(CCCCN3CCCCC3)ccc21.Cl,,0.57,1.45,1.28,
O=C(CCCN1CCCCC1)c1ccc2c(c1)sc1ccc(C(=O)CCCN3CCCCC3)cc12,1.23,2.08,1.71,1.21,1.1
C=CCN(CC=C)CCCOC(=O)c1ccc2oc3ccc(C(=O)OCCCN(CC=C)CC=C)cc3c2c1.Cl,,1.33,1.2,1.11,
CCn1c2ccc(C(=O)CCCN(C)C)cc2c2cc(C(=O)CCCN(C)C)ccc21.O=C(O)/C=C/C(=O)O,1.06,1.44,1.63,1.42,0.94
CN(C)CCCC(=O)c1ccc2sc3ccc(C(=O)CCCN(C)C)cc3c2c1.Cl,0.95,1.09,1.66,1.09,1
CCN(CC)CCCCc1ccc2c(c1)c1cc(CCCCN(CC)CC)ccc1n2CC.Cl,1.17,,1.22,1.22,0.98
CC1CCCN(COC(=O)c2ccc3oc4ccc(C(=O)OCN5CCCC(C)C5)cc4c3c2)C1.Cl (stereo unspecified),1,1.05,1.07,1.07,1.03
Cl.c1cc2oc3ccc(OCCN4CCCC4)cc3c2cc1OCCN1CCCC1,1,0.88,1.04,1.08,0.98
Cl.O=C(CCCN1CCOCC1)c1ccc2c(c1)sc1ccc(C(=O)CCCN3CCOCC3)cc12,0.94,1.98,1.33,1.13,0.9
CCN(CC)CCOC(=O)c1ccc2oc3ccc(C(=O)OCCN(CC)CC)cc3c2c1.Cl,0.98,1.09,1.02,1,1.02
Cl.c1cc2sc3ccc(OCCCN4CCCCC4)cc3c2cc1OCCCN1CCCCC1,1.06,0.77,1.94,1.34,0.98
O=C(CCCN1CCOCC1)c1ccc2oc3ccc(C(=O)CCCN4CCOCC4)cc3c2c1,1.08,1.96,1.39,1,1.08
CN(C)CCCOc1ccc2oc3ccc(OCCCN(C)C)cc3c2c1.Cl,0.88,0.66,1.24,0.92,0.92
CCCCN(CCCC)CCCOC(=O)c1ccc2oc3ccc(C(=O)OCCCN(CCCC)CCCC)cc3c2c1.Cl,,1.6,1.4,1.06,
CCN(CC)CCCOC(=O)c1ccc2[nH]c3ccc(C(=O)OCCCN(CC)CC)cc3c2c1.Cl,1.17,1.47,1.69,1.04,1.1
CC(C)CCN(CCCOC(=O)c1ccc2oc3ccc(C(=O)OCCCN(CCC(C)C)CCC(C)C)cc3c2c1)CCC(C)C,,1.11,1.07,0.91,
Cl.O=C(OCCCN1CCCCC1)c1ccc2c(c1)sc1ccc(C(=O)OCCCN3CCCCC3)cc12,,1.55,1.36,1.4,
